Results taken from US20060004197A1, “Sulfonamide-based compounds as protein tyrosine kinase inhibitors” (priority 2004, published 2006).

Columns and labels:
Assay type in all cases: biochemical
Recombinant human Src = target: T1, Recombinant human Src (Homo sapiens, UniProt P12931); assay: Src tyrosine kinase activity, poly E4Y / 32P-ATP phosphorylation assay
T1 construct: made in house; host or cells: baculovirus-insect cell system

Recombinant Csk = Recombinant Csk (Homo sapiens, UniProt P41240); assay: Csk tyrosine kinase activity, poly E4Y / 32P-ATP phosphorylation assay
FGF receptor (FGFr) = assay: FGFr tyrosine kinase activity, poly E4Y / 32P-ATP phosphorylation assay
[1] = Table 2, Formula I compounds, NI = no inhibition at 100 μg/mL
[2] = Table 3, Formula II compounds, NI = no inhibition at 100 μg/mL
[3] = Table 4, Formula III compounds, NI = no inhibition at 100 μg/mL
[4] = poly E4Y / 32P-ATP, Formula IV compounds

Sequence of Recombinant Csk (P41240 whole entry, species assumed): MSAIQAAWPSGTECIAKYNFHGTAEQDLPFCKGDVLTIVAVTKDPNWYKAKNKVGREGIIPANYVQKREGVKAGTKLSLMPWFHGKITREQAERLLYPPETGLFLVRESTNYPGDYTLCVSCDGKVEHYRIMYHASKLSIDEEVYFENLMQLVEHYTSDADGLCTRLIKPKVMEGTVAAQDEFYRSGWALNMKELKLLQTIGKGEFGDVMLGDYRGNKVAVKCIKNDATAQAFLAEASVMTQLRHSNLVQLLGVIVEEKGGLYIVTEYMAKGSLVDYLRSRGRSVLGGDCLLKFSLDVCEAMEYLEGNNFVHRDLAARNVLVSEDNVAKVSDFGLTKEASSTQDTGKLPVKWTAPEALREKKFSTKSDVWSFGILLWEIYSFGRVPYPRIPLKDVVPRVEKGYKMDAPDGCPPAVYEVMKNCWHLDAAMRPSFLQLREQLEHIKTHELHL

Q: How did the IC50 (Recombinant human Src; [1]) turn out when `Cc1ccc(S(=O)(=O)Nc2cc(Sc3c(C)cccc3C)c([N+](=O)[O-])cc2NS(=O)(=O)c2ccc(C)cc2)cc1` [Compound 4m, N-[4-(2,6-dimethyl-phenylsulfanyl)-5-nitro-2-(4-toluenesulfonylamino)-phenyl]-4-toluenesulfonamide] was run?
A: 1 µM

Q: And the IC50 (Recombinant Csk; [1])?
A: 5.4 µM

Q: And the IC50 (FGF receptor (FGFr); [1])?
A: 4.7 µM

Q: How did the IC50 (Recombinant human Src; [1]) turn out when “N-[4-chloro-2-(4-toluenesulfonylamino)-phenyl]-4-toluenesulfonamide [Compound 6]” was run?
A: 1060 µM

Q: And the IC50 (Recombinant Csk; [1])?
A: 172 µM

Q: What about the IC50 (FGF receptor (FGFr); [1]) of the same compound?
A: 20.2 µM

Q: With `Cc1ccc(S(=O)(=O)Nc2ccc(-n3cccn3)cc2NS(=O)(=O)c2ccc(C)cc2)cc1` [Compound 17a, N-[4-(pyrazol-1-yl)-2-(4-toluenesulfonylamino)-phenyl]-4-toluenesulfonamide] as the compound, how does the IC50 (Recombinant human Src; [2]) read?
A: 46 µM

Q: And the IC50 (Recombinant Csk; [2])?
A: 214 µM

Q: What about the IC50 (FGF receptor (FGFr); [2]) of the same compound?
A: 64 µM

Q: For `COC(=O)c1cc(NS(=O)(=O)c2ccc(C)cc2)c(NS(=O)(=O)c2ccc(C)cc2)cc1Oc1ccc(OC)cc1` [Compound 33, Methyl 2-(4-methoxy-phenoxy)-4,5-bis-(4-toluenesulfonylamino)-benzoate], which IC50 (Recombinant human Src; [3]) is on record?
A: 67 µM

Q: What about the IC50 (Recombinant Csk; [3]) of the same compound?
A: > 168 µM

Q: What about the “IC50 (μM) FGFr” value (FGF receptor (FGFr); [3]) of the same compound?
A: NI (NI = no inhibition at 100 μg/mL)

Q: For `COc1ccc(Oc2ccc(NS(=O)(=O)c3ccc(C(C)(C)C)cc3)c(NS(=O)(=O)c3ccc(C(C)(C)C)cc3)c2)cc1` [Compound 12o, N-[2-(4-t-butyl-benzenesulfonylamino)-4-(4-methoxy-phenoxy)-phenyl]-4-t-butyl-benzenesulfonamide], which IC50 (Recombinant human Src; [2]) is on record?
A: 7.2 µM

Q: What about the IC50 (Recombinant Csk; [2]) of the same compound?
A: > 161 µM

Q: What about the IC50 (FGF receptor (FGFr); [2]) of the same compound?
A: 22 µM

Q: How did the IC50 (Recombinant human Src; [4]) turn out when `COc1ccc(Oc2ccc(NS(=O)(=O)c3ccc(C)cc3)c(OCCO)c2)cc1` [Compound 62, N-[2-(2-hydroxy-ethoxy)-4-(4-methoxy-phenoxy)-phenyl]-4-toluenesulfonamide] was run?
A: 126 µM

Q: And the IC50 (Recombinant Csk; [4])?
A: 15 µM

Q: What about the “IC50 (μM) FGFr” value (FGF receptor (FGFr); [4]) of the same compound?
A: NI (NI = no inhibition at 100 μg/mL)

Q: For `Cc1ccc(C(=O)Nc2ccc(Sc3ccc(Cl)cc3)cc2NC(=O)c2ccc(C)cc2)cc1` [Compound 52, N-[4-(4-chloro-phenylsulfanyl)-2-(4-toluoylamino)-phenyl]-4-toluamide], which IC50 (Recombinant human Src; [4]) is on record?
A: 51 µM

Q: And the IC50 (Recombinant Csk; [4])?
A: > 205 µM

Q: And the “IC50 (μM) FGFr” value (FGF receptor (FGFr); [4])?
A: NI (NI = no inhibition at 100 μg/mL)

Q: Which IC50 (Recombinant human Src; [2]) does the source give for `Cc1ccc(S(=O)(=O)Nc2ccc(SCc3ccccc3Cl)cc2NS(=O)(=O)c2ccc(C)cc2)cc1` [Compound 15g, N-[4-(2-chloro-benzylsulfanyl)-2-(4-toluenesulfonylamino)-phenyl]-4-toluenesulfonamide] here?
A: 11 µM

Q: What about the IC50 (Recombinant Csk; [2]) of the same compound?
A: > 174 µM

Q: And the “IC50 (μM) FGFr” value (FGF receptor (FGFr); [2])?
A: NI (NI = no inhibition at 100 μg/mL)

Q: Which results are given for `Cc1ccc(S(=O)(=O)Nc2ccc(Oc3cccc(C(=O)O)c3)cc2NS(=O)(=O)c2ccc(C)cc2)cc1` [Compound 12x, N-[4-(3-carboxy-phenoxy)-2-(4-toluenesulfonylamino)-phenyl]-4-toluenesulfonamide]?
A: IC50 (Recombinant human Src; [2]): 9.5 µM; IC50 (Recombinant Csk; [2]): 72 µM; IC50 (FGF receptor (FGFr); [2]): 31 µM

Q: Which results are given for `COc1ccc(Sc2ccc(NS(=O)(=O)c3ccc(C)cc3)c(NS(=O)(=O)c3ccc(C)cc3)c2)cc1` [Compound 12gg, N-[5-(4-methoxy-phenylsulfanyl)-2-(4-toluenesulfonylamino)-phenyl]-4-toluenesulfonamide]?
A: IC50 (Recombinant human Src; [2]): 16 µM; IC50 (Recombinant Csk; [2]): > 180 µM; IC50 (FGF receptor (FGFr); [2]): 17 µM

Q: How did the IC50 (Recombinant human Src; [3]) turn out when `Cc1ccc(S(=O)(=O)Nc2cc(Br)c(Br)cc2NS(=O)(=O)c2ccc(C)cc2)cc1` [Compound 38a, N-[4,5-dibromo-2-(4-toluenesulfonylamino)-phenyl]-4-toluenesulfonamide] was run?
A: 31 µM

Q: What about the IC50 (Recombinant Csk; [3]) of the same compound?
A: > 174 µM

Q: And the IC50 (FGF receptor (FGFr); [3])?
A: 110 µM
